Laboratory results: ChEMBL document CHEMBL2384927, “Development of Unsymmetrical Dyads As Potent Noncarbohydrate-Based Inhibitors against Human β-N-Acetyl-d-hexosaminidase” (ACS Med Chem Lett, 2013)
Activity calls are given as the source filed them. The rule behind the calls is not given here.

Tests used:
[1] = target: T1, Beta-N-acetyl-D-hexosaminidase-A/B (Homo sapiens) (UniProt P07686+P06865); assay: Inhibition of human beta-N-acetyl-D-hexosaminidase-A/B using 4-Methylumbelliferyl N-acetyl-beta-D-glucosaminide as substrate at 50 uM incubated for 10 mins prior to substrate addition by spectrofluorometric analysis relative to control; format: protein assay
[2] = target: T2, Beta-N-acetyl-D-hexosaminidase-A/B (Homo sapiens, UniProt P07686+P06865); assay: Inhibition of human beta-N-acetyl-D-hexosaminidase-A/B using 4-Methylumbelliferyl N-acetyl-beta-D-glucosaminide as substrate incubated for 10 mins prior to substrate addition by spectrofluorometric analysis; format: protein assay
T2 sequence (P07686 whole entry): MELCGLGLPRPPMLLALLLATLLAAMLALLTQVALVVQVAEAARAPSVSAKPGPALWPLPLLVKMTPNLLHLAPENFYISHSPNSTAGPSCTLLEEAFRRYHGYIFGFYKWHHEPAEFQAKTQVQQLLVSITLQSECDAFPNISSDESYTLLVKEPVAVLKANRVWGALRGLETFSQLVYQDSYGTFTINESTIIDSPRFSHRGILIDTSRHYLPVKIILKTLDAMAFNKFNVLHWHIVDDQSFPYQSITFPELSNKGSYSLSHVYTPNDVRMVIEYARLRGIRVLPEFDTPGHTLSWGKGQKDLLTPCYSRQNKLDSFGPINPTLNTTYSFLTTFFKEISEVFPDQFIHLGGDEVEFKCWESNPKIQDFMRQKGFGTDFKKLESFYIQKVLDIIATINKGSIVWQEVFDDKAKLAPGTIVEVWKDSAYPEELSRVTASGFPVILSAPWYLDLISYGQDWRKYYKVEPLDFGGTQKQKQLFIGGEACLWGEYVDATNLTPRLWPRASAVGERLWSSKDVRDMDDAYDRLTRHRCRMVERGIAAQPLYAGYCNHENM
T2 sequence (P06865 whole entry): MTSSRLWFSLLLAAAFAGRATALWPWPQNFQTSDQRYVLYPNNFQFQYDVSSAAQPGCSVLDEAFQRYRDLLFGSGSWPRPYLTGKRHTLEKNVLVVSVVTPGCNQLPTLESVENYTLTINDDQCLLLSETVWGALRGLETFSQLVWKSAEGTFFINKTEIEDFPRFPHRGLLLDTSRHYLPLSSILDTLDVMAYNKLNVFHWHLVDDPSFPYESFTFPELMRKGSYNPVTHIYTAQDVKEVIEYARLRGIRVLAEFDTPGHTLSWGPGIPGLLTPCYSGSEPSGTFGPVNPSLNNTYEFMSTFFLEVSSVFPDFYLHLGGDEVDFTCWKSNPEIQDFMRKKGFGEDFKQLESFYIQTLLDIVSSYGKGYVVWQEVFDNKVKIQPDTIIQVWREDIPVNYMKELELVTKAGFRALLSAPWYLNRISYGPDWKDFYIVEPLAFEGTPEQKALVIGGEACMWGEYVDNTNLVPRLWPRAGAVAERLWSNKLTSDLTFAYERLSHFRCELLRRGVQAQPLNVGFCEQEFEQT

[3] = target: T1, Beta-N-acetyl-D-hexosaminidase-A/B (Homo sapiens); assay: Competitive inhibition of human beta-N-acetyl-D-hexosaminidase-A/B using 4-Methylumbelliferyl N-acetyl-beta-D-glucosaminide as substrate at 0.1 mM incubated for 10 mins prior to substrate addition by Dixon plot analysis; format: protein assay
[4] = target: T3, Beta-hexosaminidase subunit alpha (Homo sapiens, UniProt P06865); assay: Competitive inhibition of human beta-N-acetyl-D-hexosaminidase-A using 4-Methylumbelliferyl N-acetyl-beta-D-glucosaminide as substrate assessed as release of 4-Methylumbelliferyl fluorophore measured for 7 mins
T3 sequence (P06865 whole entry): T2 sequence (P06865 whole entry)

[5] = target: T4, Beta-hexosaminidase subunit beta (Homo sapiens, UniProt P07686); assay: Competitive inhibition of human beta-N-acetyl-D-hexosaminidase-B using 4-Methylumbelliferyl N-acetyl-beta-D-glucosaminide as substrate assessed as release of 4-Methylumbelliferyl fluorophore measured for 7 mins
T4 sequence (P07686 whole entry): T2 sequence (P07686 whole entry)

SMILES	inhibition [1]	Ki [2]	other results
COc1ccc(CNCCN2C(=O)c3cccc4cccc(c34)C2=O)cc1OC		4.99 µM	
CN(C)c1ccc2c3c(cccc13)C(=O)N(CCN)C2=O	< 50%		
O=C1c2cccc3cccc(c23)C(=O)N1CCO		30.87 µM	
NCCN1C(=O)c2cccc3cccc(c23)C1=O		2.09 µM	
O=C1c2cccc3cccc(c23)C(=O)N1CCNCCN1C(=O)c2cccc3cccc(c23)C1=O		3.22 µM	IC50 [4]: 6 µM; IC50 [5]: 3.1 µM
NCCCCCCN1C(=O)c2cccc3cccc(c23)C1=O	< 50%		
NCCCN1C(=O)c2cccc3cccc(c23)C1=O [NAPHTHALIMIDOPROPYLAMINE]		29.08 µM	
CN(C)CCN1C(=O)c2cccc3cccc(c23)C1=O		2.81 µM	
NCCN1C(=O)c2cccc3c(Br)ccc(c23)C1=O	< 50%		
NCCN1C(=O)c2cccc3cccc1c23	< 50%		
COc1ccc2c3c(cccc13)C(=O)N(CCN)C2=O	< 50%		
NCCN1C(=O)c2ccccc2C1=O	< 50%		
NCCCCN1C(=O)c2cccc3cccc(c23)C1=O		61.74 µM	

Second part, led by results:

inhibition [1]	Ki [2]	SMILES	other results
< 50%		COc1ccc(SCCCNCCN2C(=O)c3cccc4cccc(c34)C2=O)cc1	
	6.22 µM	COc1cccc(CNCCN2C(=O)c3cccc4cccc(c34)C2=O)c1	
	1.13 µM	COc1ccc(SCCNCCN2C(=O)c3cccc4cccc(c34)C2=O)cc1	
	0.93 µM	COc1cccc(OCCNCCN2C(=O)c3cccc4cccc(c34)C2=O)c1	
	0.63 µM	COc1ccc(CNCCN2C(=O)c3cccc4cccc(c34)C2=O)cc1	inhibition [3]: Active
	3 µM	O=C1c2cccc3cccc(c23)C(=O)N1CCNCCOc1ccc2c(c1)OCO2	
	0.69 µM	COc1ccc(OCCNCCN2C(=O)c3cccc4cccc(c34)C2=O)cc1OC	
	1.23 µM	COc1ccc(OCCCNCCN2C(=O)c3cccc4cccc(c34)C2=O)cc1	
	4.2 µM	COC(=O)c1ccc(OCCNCCN2C(=O)c3cccc4cccc(c34)C2=O)cc1	
< 50%		O=C1c2cccc3cccc(c23)C(=O)N1CCNCCOc1ccc([N+](=O)[O-])cc1	
	4.39 µM	COc1cccc(OCCCNCCN2C(=O)c3cccc4cccc(c34)C2=O)c1	
	4.63 µM	COc1ccc(NCCNCCN2C(=O)c3cccc4cccc(c34)C2=O)c(OC)c1	
	1.08 µM	COc1ccc(NCCNCCN2C(=O)c3cccc4cccc(c34)C2=O)cc1	
< 50%		O=C1c2cccc3cccc(c23)C(=O)N1CCNCCOc1ccc(OC(F)(F)F)cc1	
	1.04 µM	COc1ccc(OCCNCCN2C(=O)c3cccc4cccc(c34)C2=O)cc1	
< 50%		COc1cccc(NCCNCCN2C(=O)c3cccc4cccc(c34)C2=O)c1	
	1.35 µM	COc1ccccc1OCCNCCN1C(=O)c2cccc3cccc(c23)C1=O	
< 50%		O=C1c2cccc3cccc(c23)C(=O)N1CCNCCOc1ccc(Cl)cc1	
